Laboratory results: PubChem BioAssay (NCI)
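Grown in 96-well plates, cells were treated for 48 hours with each compound at five concentrations. Insufficient inhibition: endpoint recorded as highest concentration tested. TGI denotes the concentration required for complete inhibition of growth.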

Tests used:
Assay in all cases: NCI-60 cell line screen, 48 h
[1] = system: ACHN renal
[2] = system: HT29 colon
[3] = system: UO-31 renal
[4] = system: K-562 leukemia
[5] = system: COLO 205 colon
[6] = system: HCT-15 colon
[7] = system: SK-MEL-2 melanoma
[8] = system: UACC-257 melanoma
[9] = system: HOP-92 NSCLC
[10] = system: NCI/ADR-RES ovarian
[11] = system: OVCAR-3 ovarian
[12] = system: HCT-116 colon
[13] = system: NCI-H226 lung
[14] = system: KM12 colon
[15] = system: UACC-62 melanoma
[16] = system: A549 NSCLC
[17] = system: DU-145 prostate
[18] = system: MCF7 breast
[19] = system: SW-620 colon
[20] = system: NCI-H460 lung
[21] = system: U251 CNS
[22] = system: BT-549 breast
[23] = system: RXF 393 renal
[24] = system: SK-OV-3 ovarian
[25] = system: CAKI-1 renal
[26] = system: M14 melanoma
[27] = system: TK-10 renal
[28] = system: RPMI-8226 leukemia
[29] = system: HOP-62 NSCLC
[30] = system: HL-60(TB) leukemia
[31] = system: CCRF-CEM leukemia
[32] = system: IGROV1 ovarian
[33] = system: SK-MEL-28 melanoma
[34] = system: LOX IMVI melanoma
[35] = system: OVCAR-8 ovarian
[36] = system: 786-0 renal
[37] = system: MDA-N
[38] = system: MALME-3M melanoma
[39] = system: OVCAR-5 ovarian
[40] = system: MDA-MB-435
[41] = system: NCI-H522 lung
[42] = system: PC-3 prostate
[43] = system: SNB-19 CNS
[44] = system: OVCAR-4 ovarian
[45] = system: MDA-MB-231 breast
[46] = system: SN12C renal
[47] = system: T-47D breast
[48] = system: SR leukemia
[49] = system: HS 578T breast
[50] = system: NCI-H23 lung
[51] = system: SF-295 CNS
[52] = system: SF-539 CNS
[53] = system: EKVX NSCLC
[54] = system: MOLT-4 leukemia
[55] = system: HCC-2998 colon
[56] = system: SNB-75 CNS
[57] = system: A498 renal
[58] = system: SF-268 CNS
[59] = system: SK-MEL-5 melanoma

SMILES: O=S(=O)(c1ccc(I)cc1)N(c1ccccc1)S(=O)(=O)C(F)(F)C(F)(F)C(F)(F)C(F)(F)F
- TGI [1]: > 100 µM
- TGI [2]: 51.2 µM
- TGI [3]: > 100 µM
- TGI [4]: > 100 µM
- TGI [5]: > 100 µM
- TGI [6]: > 100 µM
- TGI [7]: 90.6 µM
- TGI [8]: > 100 µM
- TGI [9]: 42 µM
- TGI [10]: > 100 µM
- TGI [11]: 50.9 µM
- TGI [12]: 44.6 µM
- TGI [13]: 58 µM
- TGI [14]: > 100 µM
- TGI [15]: > 100 µM
- TGI [16]: > 100 µM
- TGI [17]: > 100 µM
- TGI [18]: > 100 µM
- TGI [19]: > 100 µM
- TGI [20]: > 100 µM
- TGI [21]: > 100 µM
- TGI [22]: > 100 µM
- TGI [23]: 78.6 µM
- TGI [24]: 74 µM
- TGI [25]: 98.2 µM
- TGI [26]: > 100 µM
- TGI [27]: 73.5 µM
- TGI [28]: > 100 µM
- TGI [29]: 66.6 µM
- TGI [30]: > 100 µM
- TGI [31]: > 100 µM
- TGI [32]: > 100 µM
- TGI [33]: > 100 µM
- TGI [34]: > 100 µM
- TGI [35]: > 100 µM
- TGI [36]: > 100 µM
- TGI [37]: > 100 µM
- TGI [38]: > 100 µM
- TGI [39]: 95.4 µM
- TGI [40]: > 100 µM
- TGI [41]: 84.9 µM
- TGI [42]: > 100 µM
- TGI [43]: > 100 µM
- TGI [44]: 68.1 µM
- TGI [45]: > 100 µM
- TGI [46]: > 100 µM
- TGI [47]: > 100 µM
- TGI [48]: > 100 µM
- TGI [49]: 99.5 µM
- TGI [50]: > 100 µM
- TGI [51]: 71.8 µM
- TGI [52]: > 100 µM
- TGI [53]: > 100 µM
- TGI [54]: > 100 µM

SMILES: CC1OC(O[C@H]2CC[C@]3(C)[C@H]4CC=C5[C@@H]6[C@@H](C)[C@H](C)CC[C@]6(C(=O)O)CC[C@@]5(C(=O)O)[C@]4(C)CC[C@H]3C2(C)C)C(O)C(O)C1O (stereo not given in full)
- TGI [1]: > 75 µM
- TGI [3]: > 75 µM
- TGI [4]: > 75 µM
- TGI [5]: > 75 µM
- TGI [6]: > 75 µM
- TGI [7]: > 75 µM
- TGI [8]: > 75 µM
- TGI [9]: > 75 µM
- TGI [10]: > 75 µM
- TGI [11]: > 75 µM
- TGI [12]: > 75 µM
- TGI [55]: > 75 µM
- TGI [14]: > 75 µM
- TGI [56]: > 75 µM
- TGI [15]: > 75 µM
- TGI [17]: > 75 µM
- TGI [18]: > 75 µM
- TGI [19]: > 75 µM
- TGI [20]: > 75 µM
- TGI [21]: > 75 µM
- TGI [22]: > 75 µM
- TGI [23]: > 75 µM
- TGI [24]: > 75 µM
- TGI [25]: > 75 µM
- TGI [26]: > 75 µM
- TGI [27]: > 75 µM
- TGI [29]: > 75 µM
- TGI [57]: > 75 µM
- TGI [30]: > 75 µM
- TGI [31]: > 75 µM
- TGI [34]: > 75 µM
- TGI [58]: > 75 µM
- TGI [35]: > 75 µM
- TGI [36]: > 75 µM
- TGI [37]: > 75 µM
- TGI [39]: > 75 µM
- TGI [40]: > 75 µM
- TGI [41]: > 75 µM
- TGI [42]: > 75 µM
- TGI [43]: > 75 µM
- TGI [44]: > 75 µM
- TGI [45]: > 75 µM
- TGI [46]: > 75 µM
- TGI [47]: > 75 µM
- TGI [48]: > 75 µM
- TGI [49]: > 75 µM
- TGI [59]: > 75 µM
- TGI [50]: > 75 µM
- TGI [51]: > 75 µM
- TGI [52]: > 75 µM
- TGI [54]: > 75 µM
